Measurements: US20170065533A1 (YISSUM RESEARCH DEVELOPMENT COMPANY OF THE HEBREW …, priority 2011, published 2017)

Experiments:
[1] = cited from earlier work
[2] = cited from earlier work; remark: listed apart in the source
[3] = 50 mg/day over one year, cited from earlier work
[4] = Particle size, PDI and zeta potential of nanocarriers; type: physicochemical; details: INPs conjugated to MAbs
Protocol: mean diameter and particle size distribution measurements were carried out utilizing an ALV Noninvasive Back Scattering High Performance Particle Sizer (ALV-NIBS HPPS, Langen, Germany) at 25° C. and using water as diluent.
the zeta potential of the NPs was measured using the Malvern zetasizer (Malvern, UK) diluted in HPLC grade water.
The size and zeta potential of the various NPs were measured in water using a DTS zetasizer (Malvern, UK).
The mean diameter and the zeta potential of NCs were characterized using Malvern's Zetasizer (Nano series, Nanos-ZS, UK) at 25° C. and using water as diluent.
Mean diameter and zeta potential of the NCs were characterized using Malvern's Zetasizer (Nano ZSP) at 25° C. For the sample preparation, 200 mg of the anhydrous semi-solid preparation were dissolved in 2 mL HPLC water. The sample was vortexed and further centrifuged (4000 rpm, 10 min). Then, 1.2 mL of the supernatant was collected and centrifuged again (14000 rpm, 10 min). Finally, 1 mL of the obtained supernatant was collected and evaluated.

[5] = Conjugation efficiency of MAbs to NPs (BCA assay); type: physicochemical; details: INPs conjugated to MAbs
Protocol: The conjugation efficiency of the macromolecules such as MAbs was determined using the […] Bicinchoninic acid assay (BCA) for protein quantification (Pierce, Ill., USA).

Compound | expression of procollagen alpha1 (I) mRNA and protein ([1]; DHEA (5%) in ethanol:olive oil (1:2), 12 times over 4 weeks, aged and young skin) | basal expression of MMP-1 mRNA and protein ([1]; DHEA (5%) topical, 12 times over 4 weeks) | expression of TIMP-1 protein ([1]; DHEA (5%) topical, aged skin) | maximum solubility in mid chain triglycerides [2] | skin status (hydration, epidermal thickness, sebum production, pigmentation) ([3]; aged 60 years and over) | harmful consequences [3] | Size [4] | Conjugation [5]
C[C@]12CC[C@H](O)CC1=CC[C@@H]1[C@@H]2CC[C@]2(C)C(=O)CC[C@@H]12 [DHEA, dehydroepiandrosterone] | significantly increase | significantly decreased | increased | 1.77% | improvement of the skin status | no harmful consequences |  | 
rituximab immunonanoparticles: thiolated PEG-PLGA50,000/PLGA48,000 nanoparticles surface-conjugated to rituximab MAb |  |  |  |  |  |  | 73.75 nm | 86.7%
